Key:
[1] = Corrosion inhibition performance test (static uniform corrosion, SY/T 5273-2014); conditions: 60 mg/L; N80 steel, corrosive solution pH 6.5, 37° C., 14 days
Protocol: The corrosive solution of 1 L was prepared, the pH was adjusted to 6.5, and the temperature was 37° C. at a normal pressure. The N80 steel specimens were processed with specifications of 30*15*3 and placed in corrosive solution. Three specimens were placed in each vial and different corrosion inhibitors were added respectively. The experiment lasted for 14 days.
After the test, the specimens were cleaned with stripping solution (100 ml hydrochloric acid+10 g hexamethylenetetramine+900 mL deionized water), then dehydrated by ethanol and blow-dried with N2. The determination method for static uniform corrosion inhibition rate was evaluated with referring to the Performance Index and Evaluation Method of Corrosion Inhibitor for Oilfield Produced Water Treatment (SY/T 5273-2014), the oil and gas industry standard of the People's Republic of China. The formulas of uniform corrosion rate and corrosion inhibition efficiency are as follows:
The corrosion inhibition test results are shown in Table 3, in which the corrosion inhibitors 1, 2 and 3 commonly used in oilfields are respectively the lauric acid imidazoline, abietic acid imidazoline and tetradecyl trimethyl ammonium bromide.

[2] = test system: sulfate reducing bacteria (SRB); test: Sterilization performance test (serial dilution counting of SRB); format: cell-based; conditions: 60 mg/L, counted 24 hours later; for Number of SRB: no bactericide 2500000
Protocol: Before the test, all devices and glass containers were sterilized for 20 min at 121° C. The SRB strain was isolated from the formation water of an injection well in a shale gas field in China. SRB liquid medium was prepared according to NACE TMO194-94 standard.
The composition of the medium is as follows: Ig yeast powder, 0.1 g ascorbic acid, 0.2 g MgSO4·7H2O, 0.01 g K2HPO4, 10 g NaCl, 0.2 g (NH4)2Fe(SO4)2·6H2O, 4 mL sodium lactate, and 1000 mL deionized water. A portable pressure steam disinfection pot was used to sterilize the bacteria in the prepared medium. In the sterilization process, the temperature was kept at 120° C. for 15 min. It was then deoxidized with N2 for 2 h. 10% SRB was inoculated into the medium and placed in an incubator at 37° C. After 5 days, the number of SRB reached the peak value and remained stable.
Different bactericides were added into the cultured bacteria solution of 200 mL and counted 24 hours later.
Serial dilution method (triple repetition) was taken for the counting of SRB. Totally 10 dilution levels were provided. At each dilution level, there were three identical vials filled with 9 mL SRB medium. The measured sample of 1 mL was injected into a vial at the Level 0 and then shaken up. The 1 mL solution from the vial at the Level 0 was injected into a vial at the Level 1. The syringe for sampling the liquid each time was disposable to avoid affecting the final results. Similarly, the sample was diluted until the dilution reached Level 9. All vials were incubated at 35° C. for 14 days at a constant temperature.
The growth index should be determined according to the following principles: three dilution levels were selected from the dilution level at which negative vials appeared, and the number of positive vials was counted for each dilution level to obtain the index (When all the vials in a certain grade are negative, the previous grade is counted). The growth index (summarized according to 5.6.5.3 in SY/T 5329-1994) is obtained by multiplying the dilution factor 10^n of water sample (n is the number of dilutions before the index position). Check the corresponding bacteria count table and substitute the bacterial count detected by the index to get the content of this kind of bacteria in the water sample (Nr./mL).
The test results are shown in Table 1, in which the vials 1 to 10 are filled with 9 mL SRB medium (10^7). The dilution levels are numbered from Lev. 0 to Lev. 9. Take the measured sample of 1 mL into the Vial 1, indicating Level 0; take a new syringe and take 1 mL from Vial 1 to Vial 2, indicating Level 1; take a new syringe and take 1 mL from Vial 2 to Vial 3, indicating […]; the rest can be done in the same manner until 1 mL is taken from Vial 9 to Vial 10, indicating Level 9. “+” represents positive vial, and “−” represents negative vial.

Compound: abietic acid imidazoline
- Corrosion inhibition efficiency [1]: 93.9%

Compound: O=CCCCC=O [Glutaraldehyde]
- Growth index [2]: 200
- Sterilization rate [2]: 64%
- Number of SRB [2]: 900000 Nr./mL

Compound: CCCCCCCCCCCC[N+](C)(C)Cc1ccccc1.[Cl-] [Traditional bactericide 1227]
- Growth index [2]: 210
- Sterilization rate [2]: 40%
- Number of SRB [2]: 1500000 Nr./mL

Compound: CCCCCCCCCCCCCC[N+](C)(C)C.[Br-] [Tetradecyl trimethyl ammonium bromide, tetradecyl trimethyl ammonium bromide]
- Corrosion inhibition efficiency [1]: 90.9%

Compound: lauric acid imidazoline
- Corrosion inhibition efficiency [1]: 93.3%

Reference: patent publication US11624022B2, “Preparation method for the plant-based nano corrosion inhibition bactericide for oilfield and application thereof” (Southwest Petroleum University, priority 2021, dated 2023)
